{
  "source": "ChEMBL document CHEMBL1155289",
  "about": "“Stimulatory effect of apigenin-6-C-beta-L-fucopyranoside on insulin secretion and glycogen synthesis” (2009)",
  "format_in_all_cases": "functional",
  "key": {"Rattus norvegicus [1]": {"system": "Rattus norvegicus", "test": "Antidiabetic activity against glucose loaded Wistar rat assessed as serum glucose level at 10 mg/kg, po after 60 mins by oral glucose tolerance test"}, "Rattus norvegicus [2]": {"system": "Rattus norvegicus", "test": "Antidiabetic activity against glucose loaded Wistar rat assessed as serum glucose level at 10 mg/kg, po after 30 mins by oral glucose tolerance test"}, "Rattus norvegicus [3]": {"system": "Rattus norvegicus", "test": "Antidiabetic activity against glucose loaded Wistar rat assessed as serum glucose level at 10 mg/kg, po by oral glucose tolerance test"}, "Rattus norvegicus [4]": {"system": "Rattus norvegicus", "test": "Antidiabetic activity against glucose loaded Wistar rat assessed as serum glucose level at 10 mg/kg, po after 15 mins by oral glucose tolerance test"}},
  "data": [
    {"compound": "Cc1cnc(C(=O)NCCc2ccc(S(=O)(=O)NC(=O)NC3CCCCC3)cc2)cn1", "note": "[GLIPIZIDE]", "values": [
      {"measurement": "Activity", "setting": "Rattus norvegicus [1]", "result": 123, "unit": "mg/dL"},
      {"measurement": "Activity", "setting": "Rattus norvegicus [2]", "result": 143, "unit": "mg/dL"},
      {"measurement": "Activity", "setting": "Rattus norvegicus [3]", "result": 120, "unit": "mg/dL"},
      {"measurement": "Activity", "setting": "Rattus norvegicus [4]", "result": 160, "unit": "mg/dL"}
    ]}
  ]
}
